Measured values published in publication PMC9403976, “Elucidating the path to Plasmodium prolyl-tRNA synthetase inhibitors that overcome halofuginone resistance” (Nature Communications, 2022).
Several values for one entry are separate records, joined by “and”; a condition that tells them apart may be missing. Identical values can stand only once. Like-named read-outs stand apart in the source and are kept apart here.

What was measured:
[1] = biological target: HsProRS (Homo sapiens, UniProt P07814); assay: TR-FRET ligand displacement assay with tracer MAT379 (CoraFluor-1-Halo and anti-His6 antibody formats); format: binding; design: made in house; host or cells: E. coli SoluBL-21; settings: for TR-FRET dose-response, normalized signal (SI Fig 11): individual replicates; for normalized TR-FRET signal (dose-response replicates): SI Fig 15
[2] = biological target: T1, PfcProRS (Plasmodium falciparum, UniProt Q8I5R7); format: binding; settings: for dose-response signal (normalized), SI Fig 8: single replicates
T1 construct: made in house; host or cells: E. coli SoluBL-21
T1 sequence (Q8I5R7 249-746): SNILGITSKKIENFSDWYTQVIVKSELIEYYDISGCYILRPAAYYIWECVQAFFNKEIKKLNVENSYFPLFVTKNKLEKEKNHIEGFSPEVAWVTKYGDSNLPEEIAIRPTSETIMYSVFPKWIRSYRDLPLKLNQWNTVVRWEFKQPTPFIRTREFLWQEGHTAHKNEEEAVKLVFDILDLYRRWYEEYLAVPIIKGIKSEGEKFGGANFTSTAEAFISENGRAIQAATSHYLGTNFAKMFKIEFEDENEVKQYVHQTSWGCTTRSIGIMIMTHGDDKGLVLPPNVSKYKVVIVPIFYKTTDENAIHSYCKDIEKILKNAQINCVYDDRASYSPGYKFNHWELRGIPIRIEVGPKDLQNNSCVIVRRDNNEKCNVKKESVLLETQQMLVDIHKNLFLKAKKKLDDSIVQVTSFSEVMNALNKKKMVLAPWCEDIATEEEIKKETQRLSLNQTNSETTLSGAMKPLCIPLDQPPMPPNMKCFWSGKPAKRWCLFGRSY

Chain of HsProRS (P07814 996-1512): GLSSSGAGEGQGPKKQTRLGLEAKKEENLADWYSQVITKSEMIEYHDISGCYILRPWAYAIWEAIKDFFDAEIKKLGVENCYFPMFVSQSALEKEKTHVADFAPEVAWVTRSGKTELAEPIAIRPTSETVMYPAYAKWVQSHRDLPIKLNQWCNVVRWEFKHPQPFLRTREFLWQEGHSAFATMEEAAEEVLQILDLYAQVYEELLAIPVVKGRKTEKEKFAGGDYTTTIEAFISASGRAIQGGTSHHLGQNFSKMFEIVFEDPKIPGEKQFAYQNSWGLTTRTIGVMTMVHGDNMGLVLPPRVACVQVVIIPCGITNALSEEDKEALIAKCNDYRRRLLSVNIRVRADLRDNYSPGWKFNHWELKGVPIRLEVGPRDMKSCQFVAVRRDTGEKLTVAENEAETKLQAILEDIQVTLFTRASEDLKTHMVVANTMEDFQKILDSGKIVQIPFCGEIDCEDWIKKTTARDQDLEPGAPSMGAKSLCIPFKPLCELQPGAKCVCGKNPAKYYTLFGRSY

With `O=C(NC1Cc2ccccc2C1)c1nccnc1NC(=O)C1CCCCC1` [compound 2, reference compound] the “TR-FRET dose-response, normalized signal (SI Fig 11)” value ([1]; Log[inhibitor] (M) -6.204) was 4.85E-01 and 4.00E-01 and 4.14E-01, the “normalized TR-FRET ligand displacement signal, dose-response replicates (SI Fig 6)” value ([1]; Log[inhibitor] (M) -6.505) was 9.53E-01 and 9.22E-01 and 9.58E-01 and the “TR-FRET dose-response, normalized signal (SI Fig 11)” value ([1]; Log[inhibitor] (M) -6.505) was 5.65E-01 and 5.68E-01 and 5.80E-01. The “normalized TR-FRET ligand displacement signal, dose-response replicates (SI Fig 6)” value ([1]; Log[inhibitor] (M) -6.806) was 8.96E-01 and 9.59E-01 and 9.45E-01, the “TR-FRET dose-response, normalized signal (SI Fig 11)” value ([1]; Log[inhibitor] (M) -6.806) was 6.77E-01 and 7.64E-01 and 7.01E-01 and the “normalized TR-FRET ligand displacement signal, dose-response replicates (SI Fig 6)” value ([1]; Log[inhibitor] (M) -7.107) was 1.10E+00 and 1.02E+00 and 1.05E+00. The “TR-FRET dose-response, normalized signal (SI Fig 11)” value ([1]; Log[inhibitor] (M) -7.107) was 8.54E-01 and 8.95E-01 and 8.55E-01, the “normalized TR-FRET ligand displacement signal, dose-response replicates (SI Fig 6)” value ([1]; Log[inhibitor] (M) -7.408) was 1.04E+00 and the “TR-FRET dose-response, normalized signal (SI Fig 11)” value ([1]; Log[inhibitor] (M) -7.408) was 8.94E-01 and 8.78E-01 and 9.74E-01. For the same compound, the “normalized TR-FRET ligand displacement signal, dose-response replicates (SI Fig 6)” value ([1]; Log[inhibitor] (M) -7.709) was 9.76E-01 and 1.06E+00 and 1.03E+00, the “TR-FRET dose-response, normalized signal (SI Fig 11)” value ([1]; Log[inhibitor] (M) -7.709) was 9.26E-01 and 9.17E-01 and 9.24E-01 and the “normalized TR-FRET ligand displacement signal, dose-response replicates (SI Fig 6)” value ([1]; Log[inhibitor] (M) -8.010) was 9.42E-01 and 1.05E+00 and 9.60E-01. For the same compound, the “TR-FRET dose-response, normalized signal (SI Fig 11)” value ([1]; Log[inhibitor] (M) -8.010) was 9.79E-01 and 9.27E-01 and 9.78E-01, the “normalized TR-FRET ligand displacement signal, dose-response replicates (SI Fig 6)” value ([1]; Log[inhibitor] (M) -8.311) was 1.02E+00 and 9.93E-01 and 1.06E+00 and the “TR-FRET dose-response, normalized signal (SI Fig 11)” value ([1]; Log[inhibitor] (M) -8.311) was 9.15E-01 and 9.66E-01 and 9.82E-01. For the same compound, the “normalized TR-FRET ligand displacement signal, dose-response replicates (SI Fig 6)” value ([1]; Log[inhibitor] (M) -8.612) was 9.95E-01 and 1.01E+00 and 1.07E+00, the “TR-FRET dose-response, normalized signal (SI Fig 11)” value ([1]; Log[inhibitor] (M) -8.612) was 9.61E-01 and 9.59E-01 and 9.62E-01 and the “normalized TR-FRET ligand displacement signal, dose-response replicates (SI Fig 6)” value ([1]; Log[inhibitor] (M) -8.913) was 1.02E+00 and 1.03E+00 and 9.75E-01. The “TR-FRET dose-response, normalized signal (SI Fig 11)” value ([1]; Log[inhibitor] (M) -8.913) was 9.90E-01 and 9.95E-01 and 9.69E-01, the “normalized TR-FRET ligand displacement signal, dose-response replicates (SI Fig 6)” value ([1]; Log[inhibitor] (M) -9.214) was 9.83E-01 and 1.03E+00 and 1.00E+00 and the “TR-FRET dose-response, normalized signal (SI Fig 11)” value ([1]; Log[inhibitor] (M) -9.214) was 9.62E-01 and 1.02E+00 and 1.04E+00. The “normalized TR-FRET signal (dose-response replicates)” value (“normalized TR-FRET signal” for short) ([1]; Log[inhibitor] (M) -4.99976) was 1.25E-01 and 2.68E-01 and 1.89E-01, the “normalized TR-FRET signal” value ([1]; Log[inhibitor] (M) -5.3009) was 2.77E-01 and 4.13E-01 and 4.17E-01 and the “normalized TR-FRET signal” value ([1]; Log[inhibitor] (M) -5.60199) was 5.80E-01 and 6.20E-01 and 4.83E-01. The “normalized TR-FRET signal” value ([1]; Log[inhibitor] (M) -5.90248) was 7.22E-01 and 7.32E-01 and 6.10E-01, the “normalized TR-FRET signal” value ([1]; Log[inhibitor] (M) -6.20323) was 6.14E-01 and 7.99E-01 and 9.70E-01 and the “normalized TR-FRET signal” value ([1]; Log[inhibitor] (M) -6.51347) was 9.27E-01 and 8.30E-01 and 1.04E+00. The “normalized TR-FRET signal” value ([1]; Log[inhibitor] (M) -6.79595) was 1.19E+00 and 9.68E-01 and 1.04E+00, the “normalized TR-FRET signal” value ([1]; Log[inhibitor] (M) -7.10794) was 9.40E-01 and 8.31E-01 and 8.97E-01 and the “normalized TR-FRET signal” value ([1]; Log[inhibitor] (M) -7.40526) was 6.74E-01 and 8.60E-01 and 9.73E-01. For the same compound, the “normalized TR-FRET signal” value ([1]; Log[inhibitor] (M) -7.7137) was 9.61E-01 and 8.55E-01 and 9.51E-01, the “normalized TR-FRET signal” value ([1]; Log[inhibitor] (M) -8) was 9.74E-01 and 7.58E-01 and 8.90E-01 and the “normalized TR-FRET signal” value ([1]; Log[inhibitor] (M) -8.331) was 8.05E-01 and 1.09E+00 and 1.00E+00. The “normalized TR-FRET signal” value ([1]; Log[inhibitor] (M) -8.57403) was 1.32E+00 and 1.15E+00 and 1.19E+00, the “normalized TR-FRET signal” value ([1]; Log[inhibitor] (M) -8.87506) was 9.35E-01 and 9.99E-01 and 1.09E+00 and the “normalized TR-FRET signal” value ([1]; Log[inhibitor] (M) -9.17609) was 1.03E+00 and 1.04E+00 and 1.09E+00. For the same compound, the “dose-response signal (normalized), SI Fig 8” value ([2]; Log[inhibitor] (M) -6.301) was 1.92E-01 and 4.91E-02 and 9.09E-02 and 1.28E-01 and 2.12E-01 and 1.32E-01, the “dose-response signal (normalized), SI Fig 8” value ([2]; Log[inhibitor] (M) -6.602) was 2.13E-01 and 1.64E-01 and 1.25E-01 and 4.31E-02 and 9.86E-02 and 8.65E-02 and the “dose-response signal (normalized), SI Fig 8” value ([2]; Log[inhibitor] (M) -6.904) was 1.14E-01 and 8.81E-02 and 8.34E-02 and 1.41E-01 and 2.01E-01 and 1.23E-01. The “dose-response signal (normalized), SI Fig 8” value ([2]; Log[inhibitor] (M) -7.205) was 2.07E-01 and 2.31E-01 and 1.85E-01 and 3.09E-01 and 3.02E-01 and 1.82E-01, the “dose-response signal (normalized), SI Fig 8” value ([2]; Log[inhibitor] (M) -7.506) was 4.98E-01 and 4.91E-01 and 5.79E-01 and 3.60E-01 and 6.32E-01 and 4.92E-01 and the “dose-response signal (normalized), SI Fig 8” value ([2]; Log[inhibitor] (M) -7.796) was 7.43E-01 and 8.09E-01 and 7.32E-01 and 8.58E-01 and 7.28E-01 and 7.94E-01. For the same compound, the “dose-response signal (normalized), SI Fig 8” value ([2]; Log[inhibitor] (M) -8.097) was 9.39E-01 and 7.78E-01 and 8.55E-01 and 1.05E+00 and 7.40E-01 and 9.07E-01, the “dose-response signal (normalized), SI Fig 8” value ([2]; Log[inhibitor] (M) -8.407) was 8.45E-01 and 1.01E+00 and 1.04E+00 and 1.10E+00 and 1.00E+00 and 9.65E-01 and the “dose-response signal (normalized), SI Fig 8” value ([2]; Log[inhibitor] (M) -8.708) was 1.03E+00 and 1.01E+00 and 9.69E-01 and 1.00E+00 and 9.25E-01 and 9.85E-01. The “dose-response signal (normalized), SI Fig 8” value ([2]; Log[inhibitor] (M) -9.018) was 1.01E+00 and 9.85E-01 and 9.47E-01 and 1.02E+00 (2×) and 9.53E-01, the “dose-response signal (normalized), SI Fig 8” value ([2]; Log[inhibitor] (M) -9.319) was 1.08E+00 and 9.09E-01 and 9.54E-01 and 9.77E-01 and 1.04E+00 and 9.33E-01 and the “dose-response signal (normalized), SI Fig 8” value ([2]; Log[inhibitor] (M) -9.620) was 9.48E-01 and 9.58E-01 and 1.04E+00 and 1.08E+00 and 1.01E+00 and 9.21E-01. For the same compound, the “dose-response signal (normalized), SI Fig 8” value ([2]; Log[inhibitor] (M) -9.921) was 1.02E+00 and 1.01E+00 and 9.29E-01 and 9.34E-01 and 1.07E+00 and 9.91E-01, the “dose-response signal (normalized), SI Fig 8” value ([2]; Log[inhibitor] (M) -10.097) was 9.97E-01 and 1.11E+00 (2×) and 9.85E-01 and 1.06E+00 and 9.77E-01 and the “dose-response signal (normalized), SI Fig 8” value ([2]; Log[inhibitor] (M) -10.585) was 1.09E+00 and 8.10E-01 and 1.01E+00 and 1.14E+00 and 1.16E+00 and 1.07E+00. For the same compound, the “PfcProRS -- best Kd” value ([2]; SI Fig 16a, values on -log scale) was 8.144.
